Molecules are shown by their SMILES.

In general, IC50 refers to the point on the concentration scale where inhibition reaches its midpoint. A higher IC50 goes with lower potency.

This assay concerns the target CDK2/Cyclin E1 (Homo sapiens (Human), UniProt P24941). Put plainly: CDK2/Cyclin E1 HTRF enzyme activity assay. Format: biochemical. The following applies: 1 mM ATP. The method, then: Assays are conducted in white 384-well polystyrene plates in a final reaction volume of 8 μL. […] HTRF signals are read after 1 hour at room temperature on a PHERAstar FS plate reader (BMG Labtech). Data is analyzed with IDBS XLFit and GraphPad Prism 5.0 software using a three or four parameter dose response curve to determine IC50 for each compound.
On to `[2H]C([2H])([2H])NCc1ccc(-n2cc(-c3nc(NC4CCN(S(=O)(=O)c5ccn(C)n5)CC4)ncc3C(F)(F)F)cn2)c(C)c1` [Example 131, N-(1-((1-Methyl-1H-pyrazol-3-yl)sulfonyl)piperidin-4-yl)-4-(1-(2-methyl-4-(((methyl-d3)amino)methyl)phenyl)-1H-pyrazol-4-yl)-5-(trifluoromethyl)pyrimidin-2-amine], for which the half-inhibitory concentration (IC50) is less than 50 nM.
The value for `CNCc1ccc(-n2cc(-c3nc(NC4CCN(S(C)(=O)=O)CC4)ncc3Cl)cn2)c(Cl)c1` [Example 124, 5-Chloro-4-(1-(2-chloro-4-((methylamino)methyl)phenyl)-1H-pyrazol-4-yl)-N-(1-(methylsulfonyl)piperidin-4-yl)pyrimidin-2-amine] was less than 50 nM.
In turn, `CS(=O)(=O)N1CCC(Nc2ncc(C(F)(F)F)c(-c3cnn(-c4ccccc4Cl)c3)n2)CC1` [Example 14, 4-(1-(2-Chlorophenyl)-1H-pyrazol-4-yl)-N-(1-(methylsulfonyl)piperidin-4-yl)-5-(trifluoromethyl)pyrimidin-2-amine] yielded an IC50 of less than 50 nM.
Molecule `CC(C)(O)Cn1cc(-c2nc(NC3CCN(S(=O)(=O)C4CCC(N5CCCC5)CC4)CC3)ncc2C(F)(F)F)cn1` (single isomer, unassigned) [91 (peak 2), 2-Methyl-1-(4-(2-((1-((4-(pyrrolidin-1-yl)cyclohexyl)sulfonyl)piperidin-4-yl)amino)-5-(trifluoromethyl)pyrimidin-4-yl)-1H-pyrazol-1-yl)propan-2-ol] registered an IC50 of less than 50 nM.
The same measure for `Cc1c(-n2cc(-c3nc(NC4CCN(S(=O)(=O)c5cn(C)cn5)CC4)ncc3C(F)(F)F)cn2)ccnc1N` [Example 35, 4-(1-(2-Amino-3-methylpyridin-4-yl)-1H-pyrazol-4-yl)-N-(1-((1-methyl-1H-imidazol-4-yl)sulfonyl)piperidin-4-yl)-5-(trifluoromethyl)pyrimidin-2-amine]: less than 50 nM; for `N#Cc1cnc(N[C@H]2CCN(S(=O)(=O)C3CC3)C[C@H]2F)nc1-c1cnn(-c2ccc(CN[C@H]3C[C@@H](C#N)C3)cc2Cl)c1` [Example 154, 4-(1-(2-Chloro-4-((((1s,3s)-3-cyanocyclobutyl)amino)methyl)phenyl)-1H-pyrazol-4-yl)-2-(((3R,4S)-1-(cyclopropylsulfonyl)-3-fluoropiperidin-4-yl)amino)pyrimidine-5-carbonitrile]: less than 50 nM; for `Cn1cc(S(=O)(=O)N2CCC(Nc3ncc(C(F)(F)F)c(-c4cnn(C5CCOCC5)c4)n3)CC2)cn1` [Example 9, N-(1-((1-Methyl-1H-pyrazol-4-yl)sulfonyl)piperidin-4-yl)-4-(1-(tetrahydro-2H-pyran-4-yl)-1H-pyrazol-4-yl)-5-(trifluoromethyl)pyrimidin-2-amine]: less than 50 nM.
The value for `CCS(=O)(=O)N1CCC(Nc2ncc(C(F)(F)F)c(-c3cnn(CC(C)(C)O)c3)n2)CC1` [Example 53, 1-(4-(2-((1-(Ethylsulfonyl)piperidin-4-yl)amino)-5-(trifluoromethyl)pyrimidin-4-yl)-1H-pyrazol-1-yl)-2-methylpropan-2-ol] was less than 50 nM.
`CCS(=O)(=O)N1CCC(Nc2ncc(C(F)(F)F)c(-c3cnn(C(C)(C)C(N)=O)c3)n2)CC1` [Example 97, 2-(4-(2-((1-(Ethylsulfonyl)piperidin-4-yl)amino)-5-(trifluoromethyl)pyrimidin-4-yl)-1H-pyrazol-1-yl)-2-methylpropanamide] registered an IC50 of less than 50 nM.
For the molecule `[2H]C([2H])([2H])NCc1ccc(-n2cc(-c3nc(NC4CCN(S(=O)(=O)c5cn(C)cn5)CC4)ncc3Cl)cn2)c(C)c1` [Example 136, 5-Chloro-N-(1-((1-methyl-1H-imidazol-4-yl)sulfonyl)piperidin-4-yl)-4-(1-(2-methyl-4-(((methyl-d3)amino)methyl)phenyl)-1H-pyrazol-4-yl)pyrimidin-2-amine], the 50% inhibitory concentration (IC50) was less than 50 nM.

(Values after patent publication US11472791B2 (Incyte Corporation, priority 2019, dated 2022).)
